ChEMBL document CHEMBL3885881, “DrugMatrix”

Species: Rattus norvegicus
Test: DrugMatrix - Regimen: Daily Repeat
Type: toxicity, organism-based, Sprague-Dawley
Design: regimen Daily Repeat, gender Male, age 6-8 weeks
Settings: in vivo, po, route oral GAVAGE, […]; for ABSOLUTE BASOPHIL / ABSOLUTE EOSINOPHIL / ABSOLUTE LYMPHOCYTE / ABSOLUTE MONOCYTE / ABSOLUTE SEGMENTED NEUTROPHIL / BASOPHIL / EOSINOPHIL / ERYTHROCYTE COUNT / HEMATOCRIT / HEMOGLOBIN / LEUKOCYTE COUNT / LYMPHOCYTE / MEAN CORPUSCULAR HEMOGLOBIN / MEAN CORPUSCULAR HEMOGLOBIN CONCENTRATION / MEAN CORPUSCULAR VOLUME / MONOCYTE / NEUTROPHIL / NUCLEATED RED BLOOD CELLS / PLATELET COUNT: tissue Blood; for ALANINE AMINOTRANSFERASE / ALBUMIN / ALKALINE PHOSPHATASE / ASPARTATE AMINOTRANSFERASE / BLOOD UREA NITROGEN / CARBON DIOXIDE / CHLORIDE / CHOLESTEROL / CREATINE PHOSPHOKINASE / CREATININE / GLUCOSE / LACTATE DEHYDROGENASE / LIPASE / PHOSPHORUS / POTASSIUM / SODIUM / TOTAL BILIRUBIN / TOTAL PROTEIN / URIC ACID: tissue Plasma
[1] = 0 mg/kg, 72 h, dose level Control, time 3 day
[2] = 0 mg/kg, 120 h, dose level Control, time 5 day
[3] = 1 mg/kg, 72 h, dose level Low, time 3 day

C[C@H]1O[C@@H](O[C@H]2[C@@H](O)C[C@H](O[C@H]3[C@@H](O)C[C@H](O[C@H]4CC[C@@]5(C)[C@H](CC[C@@H]6[C@@H]5CC[C@]5(C)[C@@H](C7=CC(=O)OC7)CC[C@]65O)C4)O[C@@H]3C)O[C@@H]2C)C[C@H](O)[C@@H]1O [DIGITOXIN]
ABSOLUTE BASOPHIL [1]: 0 CELLS/uL | ABSOLUTE EOSINOPHIL [1]: 13.67 CELLS/uL | ABSOLUTE LYMPHOCYTE [1]: 10069.5 CELLS/uL | ABSOLUTE MONOCYTE [1]: 50 CELLS/uL | ABSOLUTE SEGMENTED NEUTROPHIL [1]: 516.83 CELLS/uL | BASOPHIL [1]: 0% | EOSINOPHIL [1]: 0.17% | ERYTHROCYTE COUNT [1]: 5.44 x10E6/uL | HEMATOCRIT [1]: 33.88% | HEMOGLOBIN [1]: 13.23 G/DL | LEUKOCYTE COUNT [1]: 10.65 x10E3/uL | LYMPHOCYTE [1]: 94.67% | MEAN CORPUSCULAR HEMOGLOBIN [1]: 24.37 pg | MEAN CORPUSCULAR HEMOGLOBIN CONCENTRATION [1]: 39.05 G/DL | MEAN CORPUSCULAR VOLUME [1]: 62.38 fL | MONOCYTE [1]: 0.67% | NEUTROPHIL [1]: 4.5% | NUCLEATED RED BLOOD CELLS [1]: 0.33 /100WBC | PLATELET COUNT [1]: 414.5 x10E3/uL | ALANINE AMINOTRANSFERASE [1]: 72 u/L | ALBUMIN [1]: 3.75 G/DL | ALKALINE PHOSPHATASE [1]: 375 u/L | ASPARTATE AMINOTRANSFERASE [1]: 87.5 u/L | BLOOD UREA NITROGEN [1]: 14 mg/dL | CARBON DIOXIDE [1]: 27.5 mmol/L | CHLORIDE [1]: 95.83 MEQ/L | CHOLESTEROL [1]: 68.5 mg/dL | CREATINE PHOSPHOKINASE [1]: 284.33 u/L | CREATININE [1]: 0.16 mg/dL | GLUCOSE [1]: 156.67 mg/dL | LACTATE DEHYDROGENASE [1]: 101.83 u/L | LIPASE [1]: 9.67 u/L | PHOSPHORUS [1]: 10.33 mg/dL | POTASSIUM [1]: 5.22 MEQ/L | SODIUM [1]: 137.67 MEQ/L | TOTAL BILIRUBIN [1]: 0.13 mg/dL | TOTAL PROTEIN [1]: 5.43 G/DL | URIC ACID [1]: 0.8 mg/dL | ABSOLUTE BASOPHIL [2]: 0 CELLS/uL | ABSOLUTE EOSINOPHIL [2]: 20.67 CELLS/uL | ABSOLUTE LYMPHOCYTE [2]: 11518.33 CELLS/uL | ABSOLUTE MONOCYTE [2]: 47 CELLS/uL | ABSOLUTE SEGMENTED NEUTROPHIL [2]: 614 CELLS/uL | BASOPHIL [2]: 0% | EOSINOPHIL [2]: 0.17% | ERYTHROCYTE COUNT [2]: 5.61 x10E6/uL | HEMATOCRIT [2]: 34.25% | HEMOGLOBIN [2]: 13.38 G/DL | LEUKOCYTE COUNT [2]: 12.2 x10E3/uL | LYMPHOCYTE [2]: 94.33% | MEAN CORPUSCULAR HEMOGLOBIN [2]: 23.83 pg | MEAN CORPUSCULAR HEMOGLOBIN CONCENTRATION [2]: 39.08 G/DL | MEAN CORPUSCULAR VOLUME [2]: 61.03 fL | MONOCYTE [2]: 0.33% | NEUTROPHIL [2]: 5.17% | NUCLEATED RED BLOOD CELLS [2]: 0 /100WBC | PLATELET COUNT [2]: 941.83 x10E3/uL | ALANINE AMINOTRANSFERASE [2]: 68.83 u/L | ALBUMIN [2]: 4.12 G/DL | ALKALINE PHOSPHATASE [2]: 492.67 u/L | ASPARTATE AMINOTRANSFERASE [2]: 83.33 u/L | BLOOD UREA NITROGEN [2]: 14 mg/dL | CARBON DIOXIDE [2]: 37 mmol/L | CHLORIDE [2]: 98.67 MEQ/L | CHOLESTEROL [2]: 56.5 mg/dL | CREATINE PHOSPHOKINASE [2]: 167.33 u/L | CREATININE [2]: 0.17 mg/dL | GLUCOSE [2]: 157.5 mg/dL | LACTATE DEHYDROGENASE [2]: 104.83 u/L | LIPASE [2]: 10 u/L | PHOSPHORUS [2]: 10.43 mg/dL | POTASSIUM [2]: 5.46 MEQ/L | SODIUM [2]: 143.87 MEQ/L | TOTAL BILIRUBIN [2]: 0.17 mg/dL | TOTAL PROTEIN [2]: 5.72 G/DL | URIC ACID [2]: 0.85 mg/dL | ABSOLUTE BASOPHIL [3]: 0 CELLS/uL | ABSOLUTE EOSINOPHIL [3]: 39.67 CELLS/uL | ABSOLUTE LYMPHOCYTE [3]: 11912.33 CELLS/uL | ABSOLUTE MONOCYTE [3]: 73.33 CELLS/uL | ABSOLUTE SEGMENTED NEUTROPHIL [3]: 641.33 CELLS/uL | BASOPHIL [3]: 0% | EOSINOPHIL [3]: 0.33% | ERYTHROCYTE COUNT [3]: 5.7 x10E6/uL | HEMATOCRIT [3]: 35.6% | HEMOGLOBIN [3]: 13.77 G/DL | LEUKOCYTE COUNT [3]: 12.67 x10E3/uL | LYMPHOCYTE [3]: 93.67% | MEAN CORPUSCULAR HEMOGLOBIN [3]: 24.13 pg | MEAN CORPUSCULAR HEMOGLOBIN CONCENTRATION [3]: 38.7 G/DL | MEAN CORPUSCULAR VOLUME [3]: 62.33 fL | MONOCYTE [3]: 0.67% | NEUTROPHIL [3]: 5.33% | NUCLEATED RED BLOOD CELLS [3]: 0 /100WBC | PLATELET COUNT [3]: 661.33 x10E3/uL | ALANINE AMINOTRANSFERASE [3]: 72.67 u/L | ALBUMIN [3]: 3.77 G/DL | ALKALINE PHOSPHATASE [3]: 495.33 u/L | ASPARTATE AMINOTRANSFERASE [3]: 95.67 u/L | BLOOD UREA NITROGEN [3]: 12 mg/dL | CARBON DIOXIDE [3]: 25.67 mmol/L | CHLORIDE [3]: 96.33 MEQ/L | CHOLESTEROL [3]: 70.67 mg/dL | CREATINE PHOSPHOKINASE [3]: 398.33 u/L | CREATININE [3]: 0.17 mg/dL | GLUCOSE [3]: 146.67 mg/dL | LACTATE DEHYDROGENASE [3]: 188.67 u/L | LIPASE [3]: 11 u/L | PHOSPHORUS [3]: 10.1 mg/dL | POTASSIUM [3]: 5.78 MEQ/L | SODIUM [3]: 137.9 MEQ/L | TOTAL BILIRUBIN [3]: 0.13 mg/dL | TOTAL PROTEIN [3]: 5.57 G/DL
